From patent US6447749B1, “Perfluoro-alkyl containing dye molecules and galencial formulations” (Schering Aktiengesellschaft, priority 1999, dated 2002) come the findings set out here.

The subject of the test is regional lymph nodes. As to the kind of experiment: Coloring of regional lymph nodes after interstitial administration. In kind it is in vivo. Conditions: guinea pig; formulation 5 mol % of dye 8/95 mol % Gd complex; after interstitial/intracutaneous administration, lymph nodes prepared ex vivo; listed as 8, sodium salt. As to the method:
After the interstitial near-infrared lymphography was completed, the regional lymph nodes were prepared in the area of the administration site. […] This coloring can be used for the intraoperative diagnosis for the identification of the draining lymph nodes of a certain tissue area and for differentiating the lymph nodes from the surrounding tissue.

Regarding `CC1(C)C(=CC=CC=CC=CC2=[N+](CCCCS(=O)(=O)[O-])c3ccc(C(=O)N(CCOCCC(F)(F)C(F)(F)C(F)(F)C(F)(F)C(F)(F)C(F)(F)C(F)(F)C(F)(F)F)CC(O)CO)cc3C2(C)C)N(CCCCS(=O)(=O)[O-])c2ccccc21.[Na+]` (stereo not shown) [Dye 10, 5-{N-[2-(3,3,4,4,5,5,6,6,7,7,8,8,9,9,10,10,10-heptadecafluorodecyloxy)ethyl]-N-(2,3-dihydroxypropyl)aminocarbonyl}-2-{7-[1,3-dihydro-3,3-dimethyl-1-(4-sulfobutyl)-2H-indol-2-ylidene]-1,3,5-heptatrienyl}-3,3-dimethyl-1-(4-sulfobutyl)-3H-indolium, internal salt, sodium salt], the “coloring of regional (inguinal) lymph nodes” value is reported as “clearly visible green-coloring”.
